Assay results taken from ChEMBL document CHEMBL5727479, “Fused heteroaryl derivatives as orexin receptor antagonists” (2020).

Target: T1, Orexin receptor type 2 (Homo sapiens, UniProt O43614)
T1 sequence (O43614 whole entry): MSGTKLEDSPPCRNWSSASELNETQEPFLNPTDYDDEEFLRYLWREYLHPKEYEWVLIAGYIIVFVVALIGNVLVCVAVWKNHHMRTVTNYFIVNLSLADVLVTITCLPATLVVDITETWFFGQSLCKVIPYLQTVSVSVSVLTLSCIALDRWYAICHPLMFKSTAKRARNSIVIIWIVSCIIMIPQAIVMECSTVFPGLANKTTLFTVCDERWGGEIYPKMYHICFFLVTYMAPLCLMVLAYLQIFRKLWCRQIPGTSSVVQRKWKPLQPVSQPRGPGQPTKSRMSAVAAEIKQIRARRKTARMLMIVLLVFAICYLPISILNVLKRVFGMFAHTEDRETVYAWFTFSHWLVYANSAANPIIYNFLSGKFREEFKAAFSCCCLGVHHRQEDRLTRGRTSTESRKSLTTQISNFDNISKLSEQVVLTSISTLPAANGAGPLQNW
Experiment: FLIPR Assay: In a typical experiment the OX1 and OX2 receptor antagonistic activity of the compounds of the present invention was determined in accordance with the following experimental method. For intracellular calcium measurements, Chinese hamster ovary (CHO) cells expressing the rat orexin-1 receptor or the human orexin-2 receptor, are grown in Iscove's modified DMEM containing 2 mM L-glutamine, […], 1% hypoxanthine-thymidine supplement, 100 U/ml penicillin, 100 μg/ml streptomycin and 10% heat-inactivated fetal calf serum (FCS). The cells are seeded at 20,000 cells/well into Becton-Dickinson black 384-well clear bottom sterile plates coated with poly-D-lysine. All reagents are from GIBCO-Invitrogen Corp. The seeded plates are incubated overnight at 37° C. and 5% CO2. Ala-6,12 human orexin-A as the agonist is prepared as a 1 mM stock solution in 1% bovine serum albumin (BSA) and diluted in assay buffer (HBSS containing 20 mM HEPES, 0.1% BSA and 2.5 mM probenecid, pH7.4) for use in the assay at a final concentration of 70 pM. Test compounds are prepared as 10 mM stock solution in DMSO, then diluted in 384-well plates, first in DMSO, then assay buffer. On the day of the assay, cells are washed 3 times with 100 μl assay buffer and then incubated for 60 min (37° C., 5% CO2) in 60 μl assay buffer containing […] Fluo-4AM ester, 0.02% pluronic acid, and 1% BSA.
Assay type: cell-based

Compound: C[C@@H]1CC[C@@H](Sc2nccn3nccc23)CN1C(=O)c1ccccc1-n1nccn1
- IC50: 15.7 nM
